The test addresses T1, GK (glucokinase, residues 12-465) (Homo sapiens, UniProt P35557).
T1 construct: I.D. No. 1 corresponds to residues 12-465 of glucokinase; made in house; host or cells: DH10b-T1r E. coli
T1 sequence (P35557 with tags, fused parts or gaps isoform P35557-2): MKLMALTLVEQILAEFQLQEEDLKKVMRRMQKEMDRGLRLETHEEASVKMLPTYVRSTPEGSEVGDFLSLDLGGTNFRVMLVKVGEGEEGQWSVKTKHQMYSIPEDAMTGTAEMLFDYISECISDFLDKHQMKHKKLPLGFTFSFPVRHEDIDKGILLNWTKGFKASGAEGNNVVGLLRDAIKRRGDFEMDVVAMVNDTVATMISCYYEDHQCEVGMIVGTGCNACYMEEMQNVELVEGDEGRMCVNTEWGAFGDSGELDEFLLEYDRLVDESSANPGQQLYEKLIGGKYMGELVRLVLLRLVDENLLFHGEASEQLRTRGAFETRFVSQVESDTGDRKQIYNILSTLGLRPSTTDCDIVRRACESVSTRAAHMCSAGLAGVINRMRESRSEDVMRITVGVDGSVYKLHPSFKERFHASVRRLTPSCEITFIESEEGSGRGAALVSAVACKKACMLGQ
Kind of test: enzymatic glucokinase activity assay (ATP consumption, KinaseGlo luminescence). The test is classed as biochemical. As to conditions: 5 μM ATP, 5 mM Glucose, reported as bins; for EC50: Kact = concentration that displays 50% of the maximal increase in GK activity, 60 min, room temperature, read-out: pKact. An outline of the steps: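 E. coli-expressed recombinant GK purified by two anion-exchange steps. Reaction in 25 mM Hepes pH 7.2, 10 mM MgCl2, 1 mM DTT, 5 μM ATP, 5 mM glucose, 2% DMSO, 60 min at room temperature. ATP consumption quantified by KinaseGlo luminescence; pKact and % ACTmax derived by non-linear curve fitting.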
(In Kinase-Glo more light means more ATP remaining.)

The mark [1] stands for this setting: calculated maximal gain in GK enzyme activity at a saturating concentration of the compound, read-out: % ACTmax.

Where two headings read alike, the source gives them in different places.

With `NC(=O)c1ccc(NC(=O)C(CC2CCOCC2)n2ncc3c(S(=O)(=O)C4CC4)cc(F)cc32)nc1` (stereo not drawn) [Compound 117, 6-(2-(4-(cycloproypylsulfonyl)-6-fluoro-1H-indazol-1-yl)-3-(tetrahydro-2H-pyran-4-yl)propanamido)nicotinamide], the EC50 is at most 0.316 µM. Besides, the Emax under setting [1] is 106 to 110%.

For the compound `Cn1ccc(NC(=O)C(CC2CCOCC2)n2ncc3c(S(=O)(=O)C4CC4)c(F)ccc32)n1` (stereo not drawn) [Compound 152, 2-(4-(cyclopropylsulfonyl)-5-fluoro-1H-indazol-1-yl)-N-(1-methyl-1H-pyrazol-3-yl)-3-(tetrahydro-2H-pyran-4-yl)propanamide], the EC50 is at most 0.316 µM. Moreover, the Emax under setting [1] is 106 to 110%.

For the compound `O=C(Nc1ncc(Cl)s1)C(CC1CCOCC1)n1ncc2cc(S(=O)(=O)C3CC3)ccc21` (racemic) [Compound 10, N-(5-chlorothiazol-2-yl)-2-(5-(cyclopropylsulfonyl)-1H-indazol-1-yl)-3-(tetrahydro-2H-pyran-4-yl)propanamide], the EC50 fell in the range of 1.58 to 3.16 µM. Under setting [1], the Emax is at least 111%.

As for `O=C(Nc1ncc(F)s1)[C@@H](CC1CCOCC1)n1cc(S(=O)(=O)C2CCCC2)cn1` [Compound 43, (R)-2-(4-(cyclopentylsulfonyl)-1H-pyrazol-1-yl)-N-(5-fluorothiazol-2-yl)-3-(tetrahydro-2H-pyran-4-yl)propanamide], the EC50 is at least 15.8 µM. The Emax under setting [1] is at most 90%.

As to `COc1ccc2nc(NC(=O)C(CC3CCOCC3)n3cc(S(=O)(=O)c4ccc(Cl)cc4)cn3)sc2n1` (stereo not drawn) [Compound 30, 2-(4-(4-chlorophenylsulfonyl)-1H-pyrazol-1-yl)-N-(5-methoxythiazolo[5,4-b]pyridin-2-yl)-3-(tetrahydro-2H-pyran-4-yl)propanamide], the EC50 lay in the range of 3.98 to 12.6 µM. Moreover, the Emax under setting [1] is at most 90%.

As for `COc1ccc2c(cnn2[C@@H](CC2CCOCC2)C(=O)Nc2cnccn2)c1S(=O)(=O)C1CC1` [Compound 94, (S)-2-(4-(cyclopropylsulfonyl)-5-methoxy-1H-indazol-1-yl)-N-(pyrazin-2-yl)-3-(tetrahydro-2H-pyran-4-yl)propanamide], the EC50 is at most 0.316 µM. Also, the Emax under setting [1] is 90 to 100%.

Regarding `O=C1CC[C@H](C[C@H](C(=O)Nc2ncc(F)s2)n2ncc3c(S(=O)(=O)C4CC4)cc(Cl)cc32)C1` [Compound 78, (R)-2-(6-chloro-4-(cyclopropylsulfonyl)-1H-indazol-1-yl)-N-(5-fluorothiazol-2-yl)-3-((R)-3-oxocyclopentyl)propanamide], the EC50 is 1.58 to 3.16 µM. The Emax under setting [1] is 90 to 100%.

For `O=C(Nc1cnccn1)C(CC1CCOCC1)n1ncc2c(S(=O)(=O)C3CC3)ccnc21` (stereo not drawn) [Compound 97, 2-(4-(cyclopropylsulfonyl)-1H-pyrazolo[3,4-b]pyridin-1-yl)-N-(pyrazin-2-yl)-3-(tetrahydro-2H-pyran-4-yl)propanamide], the EC50 fell in the range of 0.398 to 1.26 µM. Besides, the Emax under setting [1] was 106 to 110%.

`O=C(Nc1ncc(Cl)s1)[C@@H](CC1CCOCC1)n1ncc2cc(S(=O)(=O)C3CC3)ccc21` [Compound 47, (R)-N-(5-chlorothiazol-2-yl)-2-(5-(cyclopropylsulfonyl)-1H-indazol-1-yl)-3-(tetrahydro-2H-pyran-4-yl)propanamide]: the EC50 fell in the range of 3.98 to 12.6 µM. Further, under setting [1], the Emax is at least 111%.

`O=C(Nc1ncc(F)s1)[C@@H](CC1CCOCC1)n1ncc2c(S(=O)(=O)C3CC3)ccnc21` [Compound 139, (R)-2-(4-(cyclopropylsulfonyl)-1H-pyrazol[3,4-b]pyridin-1-yl)-N-(5-fluorothiazol-2-yl)-3-(tetrahydro-2H-pyran-4-yl)propanamide]: the EC50 is at least 15.8 µM. Moreover, under setting [1], the Emax is 106 to 110%.

With `Nc1cc(S(=O)(=O)C2CC2)c2cnn(C(CC3CCOCC3)C(=O)Nc3cnccn3)c2n1` (stereo not drawn) [Compound 96, 2-(6-amino-4-(cyclopropylsulfonyl)-1H-pyrazolo[3,4-b]pyridin-1-yl)-N-(pyrazin-2-yl)-3-(tetrahydro-2H-pyran-4-yl)propanamide], the EC50 is 0.398 to 1.26 µM. In addition, the Emax under setting [1] was 101 to 105%.

`O=C1CC[C@H](C[C@@H](C(=O)Nc2cnccn2)n2ncc3c(S(=O)(=O)C4CC4)cccc32)C1` [Compound 74, (S)-2-(4-(cyclopropylsulfonyl)-1H-indazol-1-yl)-3-((R)-3-oxocyclopentyl)-N-(pyrazin-2-yl)propanamide]: the EC50 is 1.58 to 3.16 µM. Besides, the Emax under setting [1] is 90 to 100%.

For `O=C(Nc1ncc(F)s1)C(CC1CCCC1)n1ncc2c(S(=O)(=O)C3CC3)cccc21` (stereo not drawn) [Compound 62, 3-cyclopentyl-2-(4-(cyclopropylsulfonyl)-1H-indazol-1-yl)-N-(5-fluorothiazol-2-yl)propanamide], the EC50 was 0.398 to 1.26 µM. Moreover, the Emax under setting [1] was 90 to 100%.

Turning to `O=C1CC[C@H](CC(C(=O)Nc2cnccn2)n2ncc3c(S(=O)(=O)C4CC4)cccc32)C1` (stereo partly drawn) [Compound 71, 2-(4-(cyclopropylsulfonyl)-1H-indazol-1-yl)-3-((R)-3-oxocyclopentyl)-N-(pyrazin-2-yl)propanamide], the EC50 is 1.58 to 3.16 µM. Moreover, under setting [1], the Emax was at most 90%.

Regarding `O=C(Nc1ncc(F)s1)[C@@H](CC1CCOCC1)n1ncc2c(S(=O)(=O)C3CC3)cc(O)cc21` [Compound 77, (R)-2-(4-(cyclopropylsulfonyl)-6-hydroxy-1H-indazol-1-yl)-N-(5-fluorothiazol-2-yl)-3-(tetrahydro-2H-pyran-4-yl)propanamide], the EC50 was at least 15.8 µM. In addition, the Emax under setting [1] was 101 to 105%.

As for `O=C(Nc1cnccn1)C(CC1CCCC1)n1ncc2c(S(=O)(=O)C3CC3)cccc21` (stereo not drawn) [Compound 61, 3-cyclopentyl-2-(4-(cyclopropylsulfonyl)-1H-indazol-1-yl)-N-(pyrazin-2-yl)propanamide], the EC50 fell in the range of 0.398 to 1.26 µM. Moreover, the Emax under setting [1] is 90 to 100%.

Turning to `O=C(Nc1cnccn1)[C@@H](CC1CCOCC1)n1ncc2c(S(=O)(=O)C3CC3)cccc21` [Compound 90, (R)-2-(4-(cyclopropylsulfonyl)-1H-indazol-1-yl)-N-(pyrazin-2-yl)-3-(tetrahydro-2H-pyran-4-yl)propanamide], the EC50 is at least 15.8 µM. Besides, the Emax under setting [1] was 90 to 100%.

For `O=C(Nc1ncc(F)s1)C(CC1CCCC1)n1cc(S(=O)(=O)C2CC2)cn1` (stereo not drawn) [Compound 34, 3-cyclopentyl-2-(4-(cyclopropylsulfonyl)-1H-pyrazol-1-yl)-N-(5-fluorothiazol-2-yl)propanamide], the EC50 lay in the range of 1.58 to 3.16 µM. Besides, the Emax under setting [1] is at least 111%.

Turning to `Nc1cc(S(=O)(=O)C2CC2)c2cnn([C@@H](CC3CCOCC3)C(=O)Nc3ncc(F)s3)c2n1` [Compound 112, (S)-2-(6-amino-4-(cyclopropylsulfonyl)-1H-pyrazol[3,4-b]pyridin-1-yl)-N-(5-fluorothiazol-2-yl)-3-(tetrahydro-2H-pyran-4-yl)propanamide], the EC50 is at most 0.316 µM. For the same compound, the Emax (read-out: % ACTmax, calculated maximal gain in GK enzyme activity at a saturating concentration of the compound) was 106 to 110%.

On to `CS(=O)(=O)n1ccc(NC(=O)C(CC2CCOCC2)n2ncc3c(S(=O)(=O)C4CC4)cccc32)n1` (stereo not drawn) [Compound 146, 2-(4-(cyclopropylsulfonyl)-1H-indazol-1-yl)-N-(1-(methylsulfonyl)-1H-pyrazol-3-yl)-3-(tetrahydro-2H-pyran-4-yl)propanamide], for which the EC50 is 3.98 to 12.6 µM. In addition, the Emax under setting [1] was at most 90%.

Regarding `O=C(Nc1ncc(F)s1)[C@@H](CC1CCOCC1)n1ncc2c(S(=O)(=O)C3CC3)cc(Cl)cc21` [Compound 145, (R)-2-(6-chloro-4-(cyclopropylsulfonyl)-1H-indazol-1-yl)-N-(5-fluorothiazol-2-yl)-3-(tetrahydro-2H-pyran-4-yl)propanamide], the EC50 is 3.98 to 12.6 µM. For the same compound, the Emax under setting [1] was at most 90%.

Consider `N#Cc1cc(S(=O)(=O)C2CC2)c2cnn(C(CC3CCOCC3)C(=O)Nc3ncc(F)s3)c2c1` (stereo not drawn) [Compound 120, 2-(6-cyano-4-(cyclopropylsulfonyl)-1H-indazol-1-yl)-N-(5-fluorothiazol-2-yl)-3-(tetrahydro-2H-pyran-4-yl)propanamide], for which the EC50 was at most 0.316 µM. The Emax under setting [1] was 90 to 100%.

As for `O=C(Nc1ncc(F)s1)C(CC1CCOCC1)n1cc(S(=O)(=O)c2ccc(Cl)cc2)cn1` (stereo not drawn) [Compound 29, 2-(4-(4-chlorophenylsulfonyl)-1H-pyrazol-1-yl)-N-(5-fluorothiazol-2-yl)-3-(tetrahydro-2H-pyran-4-yl)propanamide], the EC50 lay in the range of 0.398 to 1.26 µM. The Emax under setting [1] is at least 111%.

On to `COc1ccc2nc(NC(=O)C(CC3CCOCC3)n3cc(S(=O)(=O)C4CC4)cn3)sc2n1` (stereo not drawn) [Compound 24, 2-(4-(cyclopropylsulfonyl)-1H-pyrazol-1-yl)-N-(5-methoxythiazolo[5,4-b]pyridin-2-yl)-3-(tetrahydro-2H-pyran-4-yl)propanamide], for which the EC50 was at least 15.8 µM. For the same compound, under setting [1], the Emax was at most 90%.

The record behind these values is patent US8563730B2, “Pyrazole and fused pyrazole glucokinase activators” (Takeda San Diego, Inc., priority 2008, dated 2013).
